The values that follow come from PubChem BioAssay (NCI).

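1) Cells in 96-well plates. 2) Compound, 48 h, 5 concentrations. 3) Linear interpolation between surrounding doses. 4) Unreached endpoint = highest concentration. GI50: concentration for 50% inhibition of growth. At the TGI there is no net growth.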 Some results are limits rather than exact numbers.

Among the test systems are CAKI-1 renal; CCRF-CEM leukemia; COLO 205 colon; EKVX NSCLC; HCC-2998 colon; LOX IMVI melanoma; OVCAR-8 ovarian; RXF 393 renal; SR leukemia; UACC-257 melanoma.
Common to all, as to assay: growth of human tumour cells (NCI), 48 h

As for `Cc1cc2c(cc1C)N(C(=O)CCl)CCN2C(=O)CCl`, the GI50 with CAKI-1 renal is 1.78 µM; in the experiment on CCRF-CEM leukemia, 0.282 µM; in the experiment with COLO 205 colon it was 0.484 µM; in the experiment with EKVX NSCLC, 1.99 µM; in the experiment with HCC-2998 colon, 1.78 µM; in the experiment on LOX IMVI melanoma it was 0.173 µM. The GI50 in the experiment on OVCAR-8 ovarian was 0.644 µM; with RXF 393 renal it was 0.237 µM; in the experiment with SR leukemia, 0.421 µM; in the experiment with UACC-257 melanoma, 1.3 µM. Also, the TGI in the experiment on CAKI-1 renal is 4.08 µM; with CCRF-CEM leukemia, 0.856 µM; in the experiment with COLO 205 colon, 1.02 µM; in the experiment on EKVX NSCLC, 4.64 µM; in the experiment on HCC-2998 colon, 3.3 µM; in the experiment with LOX IMVI melanoma, 0.365 µM. Besides, the TGI stood at 6.13 µM in the experiment with OVCAR-8 ovarian, 0.668 µM with RXF 393 renal, 2.65 µM with SR leukemia and 2.71 µM in the experiment on UACC-257 melanoma.

Take `CCC[n+]1cc2cc(OC)c(OC)cc2c2c1-c1cc3c(cc1C2)OCO3`: the GI50 is 7.14 µM in the experiment with CAKI-1 renal; 2.53 µM in the experiment with CCRF-CEM leukemia; 1.61 µM with COLO 205 colon; 11.9 µM with EKVX NSCLC; 3.99 µM in the experiment on HCC-2998 colon; 8.25 µM in the experiment with LOX IMVI melanoma. Further, the GI50 was 2.18 µM with OVCAR-8 ovarian, 17 µM in the experiment on RXF 393 renal, 2.18 µM in the experiment on SR leukemia and 1.19 µM in the experiment on UACC-257 melanoma. The TGI with CAKI-1 renal is 44.2 µM; with COLO 205 colon, 8.52 µM; with EKVX NSCLC, 48 µM; in the experiment with HCC-2998 colon, 14.9 µM; in the experiment on LOX IMVI melanoma, over 62.2 µM; in the experiment on OVCAR-8 ovarian, 6.23 µM. Further, the TGI with RXF 393 renal turned out to be 35.7 µM; in the experiment with SR leukemia, 26.2 µM; with UACC-257 melanoma, 3.87 µM.
